Data on 26 compounds can be found in US20240166643A1, “IMIDAZO[1,2-A]PYRIDINE COMPOUNDS AND THEIR USE IN THERAPY” (Imperial College Innovations Limited, priority 2020, published 2024).

The subject of one experiment is SU-DHL-10 cells. Put plainly: Cell cytotoxicity in SU-DHL-10 cell line (CellTiter-Glo). The class given is cell-based. The conditions noted are these: Homo sapiens, SU-DHL10; CellTiter-Glo, 48 h; read-out: SU-DHL-10 EC50. The method, then:
Assay (c): Cell Cytotoxicity in SU-DHL-10 Cell Line
Cell Culture: SU-DHL-10 (ATCC CRL-2963) were cultured in RPMI-media (ATCC, 30-2001).
Cultures were maintained by the addition of fresh medium and inoculum of 8.0×10^4 to 2.0×10^5 cells/mL. Subculturing was done when the cell density was between 1.0×10^6 and 2.0×10^6 cells/mL.
Cell seeding: 5000 cells/well were plated in 384-white clear bottom plates (Greiner, 781098) for the assay in 20 μl growth media.
Top dose: 1 mM stocks of each compound was prepared in 100% DMSO and thereafter diluted 333.33 fold in growth media to obtain 3 μM (0.3% DMSO) mid stock of each compound, from which 10 μl was added to assay wells (with 20 μl cells) for a final concentration of 1 μM (0.1% DMSO). For subsequent dose-response: 1 mM stock was diluted 3 fold in DMSO before subjecting to above dilution pattern to obtain final 0.1% DMSO concentration.
Treatment: Cells were incubated with the compounds for 48 h at 37° C. in presence of 5% CO2.
Assay Procedure: The assay plate and its contents were equilibrated at room temperature for approximately 30 minutes. CellTiter-Glo® Reagent was added equal to the volume (1;1) of cell culture medium present in each well. The contents were mixed for 5 minutes on an orbital shaker to induce cell lysis. The plate was allowed to incubate at room temperature for 10 minutes to stabilize luminescent signal. The luminescence was recorded with an integration time of 0.25 seconds in EnVision 2104 Multilabel Plate Reader (Perkin Elmer).
Calculation: % Cytotoxicity was calculated considering 100% cell death in wells treated with 0.1% TritonX.
A general note: In ATP-based viability assays light output follows the ATP content of the culture.

A further experiment has as its target Human NMT1 (HsNMT1) (Homo sapiens, UniProt P30419). Put plainly: biochemical.
The target of experiment [1] is Plasmodium vivax (Pv) NMT (Plasmodium vivax (strain Salvador I), UniProt A5K1A2). In words: biochemical.
Experiment [2] has as its system Plasmodium falciparum 3D7. Put plainly: SYBR Green assay, Plasmodium falciparum strain 3D7. The class given is cell-based. As to conditions: P. falciparum strain 3D7, 96 h incubation, read-out: Pf EC50 strain 3D7.

Human NMT1 (HsNMT1), sequence (P30419 whole entry, looked up): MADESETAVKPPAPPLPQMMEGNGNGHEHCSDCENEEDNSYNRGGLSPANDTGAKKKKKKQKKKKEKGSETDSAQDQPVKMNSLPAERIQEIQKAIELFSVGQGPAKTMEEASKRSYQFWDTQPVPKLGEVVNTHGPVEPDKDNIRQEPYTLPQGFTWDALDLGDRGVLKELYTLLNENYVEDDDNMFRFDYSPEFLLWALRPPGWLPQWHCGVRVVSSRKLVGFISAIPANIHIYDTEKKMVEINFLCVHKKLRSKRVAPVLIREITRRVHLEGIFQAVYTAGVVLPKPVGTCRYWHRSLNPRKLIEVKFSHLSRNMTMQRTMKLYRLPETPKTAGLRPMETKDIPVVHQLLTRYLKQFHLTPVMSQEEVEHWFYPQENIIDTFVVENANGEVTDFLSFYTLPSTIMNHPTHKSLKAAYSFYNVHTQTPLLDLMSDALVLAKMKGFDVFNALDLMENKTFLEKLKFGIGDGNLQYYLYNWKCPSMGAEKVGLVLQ
Plasmodium vivax (Pv) NMT, sequence (A5K1A2 1-410): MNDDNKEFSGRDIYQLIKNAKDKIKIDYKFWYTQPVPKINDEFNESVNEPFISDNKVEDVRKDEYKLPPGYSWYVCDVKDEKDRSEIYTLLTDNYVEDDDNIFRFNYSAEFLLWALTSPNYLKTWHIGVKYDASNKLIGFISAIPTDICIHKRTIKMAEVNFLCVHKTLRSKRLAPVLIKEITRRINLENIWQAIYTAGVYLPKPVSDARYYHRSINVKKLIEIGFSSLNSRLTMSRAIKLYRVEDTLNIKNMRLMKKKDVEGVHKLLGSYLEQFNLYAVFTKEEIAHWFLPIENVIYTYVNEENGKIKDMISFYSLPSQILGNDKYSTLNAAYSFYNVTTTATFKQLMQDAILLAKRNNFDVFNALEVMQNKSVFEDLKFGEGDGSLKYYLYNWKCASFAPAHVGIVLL

As usually defined, the EC50 is the concentration that produces a half-maximal response. `CN(C(=O)C1CN(c2nc(N3CCNCC3)ncc2Cl)C1)C(C)(C)c1cnc2ccccn12` [Example 119, 1-(5-chloro-2-(piperazin-1-yl)pyrimidin-4-yl)-N-(2-(imidazo[1,2-a]pyridin-3-yl)propan-2-yl)-N-methylazetidine-3-carboxamide]: in the experiment with SU-DHL-10 cells, the EC50 turned out to be 925 nM.
The IC50 is the point on the concentration scale where inhibition reaches its midpoint. A high value points to weaker potency. As to `C[C@@H]1CN(c2ncc(F)c(N3CC(C)(C(=O)NC(C)(C)c4cnc5ccccn45)C3)n2)CCN1C` [Example 87, 1-{2-[(3R)-3,4-dimethylpiperazin-1-yl]-5-fluoropyrimidin-4-yl}-N-(2-{imidazo[1,2-a]pyridin-3-yl}propan-2-yl)-3-methylazetidine-3-carboxamide], the IC50 on Human NMT1 (HsNMT1) turned out to be 150 nM; in experiment [1], 38 nM. The EC50 in experiment [2] was > 760 nM.
As for `CN(C(=O)C1CN(c2nc(N3CCNCC34CC4)ncc2Cl)C1)C(C)(C)c1cnc2ccccn12` [Example 150, 1-(5-chloro-2-(4,7-diazaspiro[2.5]octan-4-yl)pyrimidin-4-yl)-N-(2-(imidazo[1,2-a]pyridin-3-yl)propan-2-yl)-N-methylazetidine-3-carboxamide], the EC50 in the experiment on SU-DHL-10 cells is > 1000 nM.
On to `CN1CCCN(c2nc3c(c(N4CC(C(=O)NC(C)(C)c5cnc6ccccn56)C4)n2)CCC3)CC1` [Example 114, N-(2-(imidazo[1,2-a]pyridin-3-yl)propan-2-yl)-1-(2-(4-methyl-1,4-diazepan-1-yl)-6,7-dihydro-5H-cyclopenta[d]pyrimidin-4-yl)azetidine-3-carboxamide], for which the EC50 in the experiment on SU-DHL-10 cells amounted to 65 nM.
Consider `C[C@@H]1CN(c2ncc(F)c(N3CCC(C(=O)NC(C)(C)c4cnc5ccccn45)C3)n2)CCN1C` (stereo partly drawn) [Example 86, 1-{2-[(3R)-3,4-dimethylpiperazin-1-yl}-5-fluoropyrimidin-4-yl}-N-(2-{imidazo[1,2-a]pyridin-3-yl}propan-2-yl)pyrrolidine-3-carboxamide], for which the results for the IC50 (against Human NMT1 (HsNMT1); in experiment [1]) were 39 nM and 7 nM, respectively. The EC50 in experiment [2] is 200 nM.
In the same order, the values of `CN1CCN(c2ncc(F)c(N3CCC(C(=O)NC(C)(C)c4cnc5ccccn45)C3)n2)CC1` (stereo not shown) [Example 64] are 190 nM, 20 nM and 850 nM.
As to `Cc1ccc2ncc(C(C)(C)NC(=O)C3CN(c4nc(N5CCN(C)[C@H](C)C5)ncc4Cl)C3)n2c1` [Example 98, 1-{5-chloro-2-[(3R)-3,4-dimethylpiperazin-1-yl]pyrimidin-4-yl}-N-(2-{6-methylimidazo[1,2-a]pyridin-3-yl}propan-2-yl)azetidine-3-carboxamide], the values for the half-inhibitory concentration (IC50) (against Human NMT1 (HsNMT1); in experiment [1]) were 5.4 nM and 5.8 nM, respectively. In experiment [2], the concentration for a half-maximal effect (EC50) worked out at 7 nM.
As for `C[C@@H]1CN(c2ncc(Cl)c(N3CC(C(=O)NC(C)(C)c4cnc5ccccn45)C3)n2)C[C@@H](C)N1C` [Example 92, 1-{5-chloro-2-[(3R,5R)-3,4,5-trimethylpiperazin-1-yl]pyrimidin-4-yl}-N-(2-{imidazo[1,2-a]pyridin-3-yl}propan-2-yl)azetidine-3-carboxamide], the IC50 on Human NMT1 (HsNMT1) is 55 nM; in experiment [1], 41 nM. Besides, in experiment [2], the EC50 was determined as 260 nM.
Regarding `CC1CN(c2ncc(F)c(N3CC(C(=O)NC(C)(C)c4cnc5ccccn45)C3)n2)C[C@H](C)N1` (stereo partly shown) [Example 49], the IC50 against Human NMT1 (HsNMT1) was determined as 14 nM; in experiment [1], 8.4 nM. The concentration giving a half-maximal response (EC50) in experiment [2] is 57 nM.
Turning to `C[C@H]1CN(c2ncc(Cl)c(N3CC(C(=O)N(C)C(C)(C)c4cnc5ccccn45)C3)n2)CCN1` [Example 139, (S)-1-(5-chloro-2-(3-methylpiperazin-1-yl)pyrimidin-4-yl)-N-(2-(Imidazo[1,2-a]pyridin-3-yl)propan-2-yl)-N-methylazetidine-3-carboxamide], in the experiment on SU-DHL-10 cells, the EC50 is 542 nM.
For the compound `Cc1nc(N2CCCN(C)CC2)nc(N2CC(C(=O)NC(C)(C)c3cnc4ccccn34)C2)c1Cl` [Example 115, 1-(5-chloro-6-methyl-2-(4-methyl-1,4-diazepan-1-yl)pyrimidin-4-yl)-N-(2-(imidazo[1,2-a]pyridin-3-yl)propan-2-yl)azetidine-3-carboxamide], the concentration for a half-maximal effect (EC50) with SU-DHL-10 cells was 54 nM.
Turning to `C[C@@H]1CN(c2ncc(F)c(N3CC(C(=O)NC(C)(C)c4cnc5ccccn45)C3)n2)C[C@@H](C)N1C` [Example 93, 1-{5-fluoro-2-[(3R,5R)-3,4,5-trimethylpiperazin-1-yl]pyrimidin-4-yl}-N-(2-{imidazo[1,2-a]pyridin-3-yl}propan-2-yl)azetidine-3-carboxamide], the IC50 on Human NMT1 (HsNMT1) worked out at 250 nM; in experiment [1], 59 nM. In addition, the EC50 in experiment [2] was determined as 860 nM.
In the same order, the values of `C[C@H]1CN(c2ncc(Cl)c(N3CC(C(=O)NC(C)(C)c4cnc5ccccn45)C3)n2)CCN1` [Example 37] are 7.9 nM, 8.4 nM and 27 nM.
As to `CN1CCC(N(C)c2ncc(F)c(N3CC(C(=O)NC(C)(C)c4cnc5ccccn45)C3)n2)C1` (stereo not shown) [Example 58], the IC50 turned out to be 37 nM on Human NMT1 (HsNMT1) and 13 nM in experiment [1]. Further, the EC50 in experiment [2] turned out to be 410 nM.
In the case of `Cc1ccc2ncc(C(C)(C)NC(=O)C3CN(c4nc(N5CCN(C)[C@H](C)C5)ncc4F)C3)n2c1` [Example 97, 1-{2-[(3R)-3,4-dimethylpiperazin-1-yl}-5-fluoropyrimidin-4-yl}-N-(2-{6-methylimidazo[1,2-a]pyridin-3-yl}propan-2-yl)azetidine-3-carboxamide], the IC50 on Human NMT1 (HsNMT1) came out at 25.7 nM; in experiment [1], 4.9 nM. Further, the EC50 in experiment [2] came out at 69 nM.
As for `CN(C(=O)C1CN(c2nc(N3CCNCC3(C)C)ncc2Cl)C1)C(C)(C)c1cnc2ccccn12` [Example 149, 1-(5-chloro-2-(2,2-dimethylpiperazin-1-yl)pyrimidin-4-yl)-N-(2-(Imidazo[1,2-a]pyridin-3-yl)propan-2-yl)-N-methylazetidine-3-carboxamide], the EC50 in the experiment with SU-DHL-10 cells stood at 145 nM.
`CN(c1ncc(F)c(N2CC(C(=O)NC(C)(C)c3cnc4ccccn34)C2)n1)C1CCNC1` (stereo not shown) [Example 40]: the figures for the half-maximal inhibitory concentration (IC50) (at Human NMT1 (HsNMT1); in experiment [1]) were 160 nM and 18 nM, respectively. For the same compound, the EC50 in experiment [2] amounted to 250 nM.
Take `C[C@@H]1CN(c2ncc(Cl)c(N3CC(C(=O)N(C)C(C)(C)c4cnc5ccccn45)C3)n2)CCN1` [Example 124, (R)-1-(5-chloro-2-(3-methylpiperazin-1-yl)pyrimidin-4-yl)-N-(2-(Imidazo[1,2-a]pyridin-3-yl)propan-2-yl)-N-methylazetidine-3-carboxamide]: the EC50 in the experiment with SU-DHL-10 cells came to 448 nM.
Take `CC1CN(c2ncc(Cl)c(N3CC(C(=O)NCc4cnc5ccccn45)C3)n2)CCN1` (stereo not shown) [Example 29]: the IC50 against Human NMT1 (HsNMT1) stood at 79 nM; in experiment [1], 18 nM. In addition, in experiment [2], the EC50 was found to be 620 nM.
As to `C[C@H]1CNCCN1c1nc(N2CC(C(=O)N(C)C(C)(C)c3cnc4ccccn34)C2)c2sccc2n1` [Example 125, (S)—N-(2-(imidazo[1,2-a]pyridin-3-yl)propan-2-yl)-N-methyl-1-(2-(2-methylpiperazin-1-yl)thieno[3,2-d]pyrimidin-4-yl)azetidine-3-carboxamide], the EC50 in the experiment on SU-DHL-10 cells was 361 nM.
With `O=C(NCc1cnc2cc(F)ccn12)C1CN(c2nc(N3CCCNCC3)ncc2Cl)C1` [Example 21], the IC50 amounted to 50 nM against Human NMT1 (HsNMT1) and 17 nM in experiment [1]. For the same compound, in experiment [2], the EC50 was found to be 800 nM.
The matching figures for `C[C@H]1CN(c2ncc(F)c(N3CC(C(=O)NC(C)(C)c4cnc5ccccn45)C3)n2)CCN1C` [Example 82, 1-{2-[(3S)-3,4-dimethylpiperazin-1-yl]-5-fluoropyrimidin-4-yl}-N-(2-{imidazo[1,2-a]pyridin-3-yl}propan-2-yl)azetidine-3-carboxamide]: 100 nM, 43 nM and 94 nM.
`C[C@@H]1CN(C)CCN1c1ncc(Cl)c(N2CC(C(=O)NC(C)(C)c3cnc4ccccn34)C2)n1` [Example 68]: the IC50 on Human NMT1 (HsNMT1) was 88 nM; in experiment [1], 32 nM. Besides, the EC50 in experiment [2] was determined as 74 nM.
In the same order, the values of `COc1cnc(N2CCCN(C)CC2)nc1N1CC(C(=O)NC(C)(C)c2cnc3ccccn23)C1` [Example 62] are 5 nM, 6 nM and 11 nM.
As to `CN(C(=O)C1CN(c2nc(N3CCNC(C)(C)C3)ncc2Cl)C1)C(C)(C)c1cnc2ccccn12` [Example 127, 1-(5-chloro-2-(3,3-dimethylpiperazin-1-yl)pyrimidin-4-yl)-N-(2-(Imidazo[1,2-a]pyridin-3-yl)propan-2-yl)-N-methylazetidine-3-carboxamide], in the experiment on SU-DHL-10 cells, the EC50 came out at 609 nM.
On to `CN(C(=O)C1CN(c2nc(N3CCCNCC3)ncc2Cl)C1)C(C)(C)c1cnc2ccccn12` [Example 120, 1-(5-chloro-2-(1,4-diazepan-1-yl)pyrimidin-4-yl)-N-(2-(Imidazo[1,2-a]pyridin-3-yl)propan-2-yl)-N-methylazetidine-3-carboxamide], for which the EC50 in the experiment with SU-DHL-10 cells is 545 nM.
